{
  "source": "ChEMBL document CHEMBL4715696",
  "about": "“In vitro synergistic anticancer activity of the combination of T-type calcium channel blocker and chemotherapeutic agent in A549 cells” (Bioorg Med Chem Lett, 2016)",
  "key": {"A549 [1]": {"system": "A549", "assay": "Cytotoxicity against human A549 cells assessed as reduction in cell viability by MTT assay", "type": "functional, cell-based"}, "A549 [2]": {"system": "A549", "assay": "Induction of cell cycle arrest in human A549 cells assessed as accumulation at sub G1 phase at 10 uM after 24 hrs by flow cytometric analysis (reference value: 7.8%)", "type": "functional"}, "A549 [3]": {"system": "A549", "assay": "Induction of cell cycle arrest in human A549 cells assessed as accumulation at G1 phase at 10 uM after 24 hrs by flow cytometric analysis (reference value: 53.1%)", "type": "functional"}, "A549 [4]": {"system": "A549", "assay": "Induction of cell cycle arrest in human A549 cells assessed as accumulation at S phase at 10 uM after 24 hrs by flow cytometric analysis (reference value: 17.6%)", "type": "functional"}, "A549 [5]": {"system": "A549", "assay": "Induction of cell cycle arrest in human A549 cells assessed as accumulation at G2/M phase at 10 uM after 24 hrs by flow cytometric analysis (reference value: 21.6%)", "type": "functional"}, "A549 [6]": {"system": "A549", "assay": "Induction of cell cycle arrest in human A549 cells assessed as accumulation at sub G1 phase at 10 uM after 48 hrs by flow cytometric analysis (reference value: 4.9%)", "type": "functional"}, "A549 [7]": {"system": "A549", "assay": "Induction of cell cycle arrest in human A549 cells assessed as accumulation at G1 phase at 10 uM after 48 hrs by flow cytometric analysis (reference value: 57.8%)", "type": "functional"}, "A549 [8]": {"system": "A549", "assay": "Induction of cell cycle arrest in human A549 cells assessed as accumulation at S phase at 10 uM after 48 hrs by flow cytometric analysis (reference value: 12%)", "type": "functional"}, "A549 [9]": {"system": "A549", "assay": "Induction of cell cycle arrest in human A549 cells assessed as accumulation at G2/M phase at 10 uM after 48 hrs by flow cytometric analysis (reference value: 25.4%)", "type": "functional"}, "[10]": {"assay": "Metabolic stability in human plasma assessed as parent compound remaining at 10 uM measured after 2 hrs", "type": "ADME, cell-free", "settings": "read-out: Stabilty"}, "[11]": {"assay": "Metabolic stability in rat plasma assessed as parent compound remaining at 10 uM measured after 2 hrs", "type": "ADME, cell-free", "settings": "read-out: Stabilty"}, "[12]": {"molecular_target": "Voltage-dependent T-type calcium channel subunit alpha-1G (Homo sapiens, UniProt O43497)", "sequence (O43497 whole entry)": "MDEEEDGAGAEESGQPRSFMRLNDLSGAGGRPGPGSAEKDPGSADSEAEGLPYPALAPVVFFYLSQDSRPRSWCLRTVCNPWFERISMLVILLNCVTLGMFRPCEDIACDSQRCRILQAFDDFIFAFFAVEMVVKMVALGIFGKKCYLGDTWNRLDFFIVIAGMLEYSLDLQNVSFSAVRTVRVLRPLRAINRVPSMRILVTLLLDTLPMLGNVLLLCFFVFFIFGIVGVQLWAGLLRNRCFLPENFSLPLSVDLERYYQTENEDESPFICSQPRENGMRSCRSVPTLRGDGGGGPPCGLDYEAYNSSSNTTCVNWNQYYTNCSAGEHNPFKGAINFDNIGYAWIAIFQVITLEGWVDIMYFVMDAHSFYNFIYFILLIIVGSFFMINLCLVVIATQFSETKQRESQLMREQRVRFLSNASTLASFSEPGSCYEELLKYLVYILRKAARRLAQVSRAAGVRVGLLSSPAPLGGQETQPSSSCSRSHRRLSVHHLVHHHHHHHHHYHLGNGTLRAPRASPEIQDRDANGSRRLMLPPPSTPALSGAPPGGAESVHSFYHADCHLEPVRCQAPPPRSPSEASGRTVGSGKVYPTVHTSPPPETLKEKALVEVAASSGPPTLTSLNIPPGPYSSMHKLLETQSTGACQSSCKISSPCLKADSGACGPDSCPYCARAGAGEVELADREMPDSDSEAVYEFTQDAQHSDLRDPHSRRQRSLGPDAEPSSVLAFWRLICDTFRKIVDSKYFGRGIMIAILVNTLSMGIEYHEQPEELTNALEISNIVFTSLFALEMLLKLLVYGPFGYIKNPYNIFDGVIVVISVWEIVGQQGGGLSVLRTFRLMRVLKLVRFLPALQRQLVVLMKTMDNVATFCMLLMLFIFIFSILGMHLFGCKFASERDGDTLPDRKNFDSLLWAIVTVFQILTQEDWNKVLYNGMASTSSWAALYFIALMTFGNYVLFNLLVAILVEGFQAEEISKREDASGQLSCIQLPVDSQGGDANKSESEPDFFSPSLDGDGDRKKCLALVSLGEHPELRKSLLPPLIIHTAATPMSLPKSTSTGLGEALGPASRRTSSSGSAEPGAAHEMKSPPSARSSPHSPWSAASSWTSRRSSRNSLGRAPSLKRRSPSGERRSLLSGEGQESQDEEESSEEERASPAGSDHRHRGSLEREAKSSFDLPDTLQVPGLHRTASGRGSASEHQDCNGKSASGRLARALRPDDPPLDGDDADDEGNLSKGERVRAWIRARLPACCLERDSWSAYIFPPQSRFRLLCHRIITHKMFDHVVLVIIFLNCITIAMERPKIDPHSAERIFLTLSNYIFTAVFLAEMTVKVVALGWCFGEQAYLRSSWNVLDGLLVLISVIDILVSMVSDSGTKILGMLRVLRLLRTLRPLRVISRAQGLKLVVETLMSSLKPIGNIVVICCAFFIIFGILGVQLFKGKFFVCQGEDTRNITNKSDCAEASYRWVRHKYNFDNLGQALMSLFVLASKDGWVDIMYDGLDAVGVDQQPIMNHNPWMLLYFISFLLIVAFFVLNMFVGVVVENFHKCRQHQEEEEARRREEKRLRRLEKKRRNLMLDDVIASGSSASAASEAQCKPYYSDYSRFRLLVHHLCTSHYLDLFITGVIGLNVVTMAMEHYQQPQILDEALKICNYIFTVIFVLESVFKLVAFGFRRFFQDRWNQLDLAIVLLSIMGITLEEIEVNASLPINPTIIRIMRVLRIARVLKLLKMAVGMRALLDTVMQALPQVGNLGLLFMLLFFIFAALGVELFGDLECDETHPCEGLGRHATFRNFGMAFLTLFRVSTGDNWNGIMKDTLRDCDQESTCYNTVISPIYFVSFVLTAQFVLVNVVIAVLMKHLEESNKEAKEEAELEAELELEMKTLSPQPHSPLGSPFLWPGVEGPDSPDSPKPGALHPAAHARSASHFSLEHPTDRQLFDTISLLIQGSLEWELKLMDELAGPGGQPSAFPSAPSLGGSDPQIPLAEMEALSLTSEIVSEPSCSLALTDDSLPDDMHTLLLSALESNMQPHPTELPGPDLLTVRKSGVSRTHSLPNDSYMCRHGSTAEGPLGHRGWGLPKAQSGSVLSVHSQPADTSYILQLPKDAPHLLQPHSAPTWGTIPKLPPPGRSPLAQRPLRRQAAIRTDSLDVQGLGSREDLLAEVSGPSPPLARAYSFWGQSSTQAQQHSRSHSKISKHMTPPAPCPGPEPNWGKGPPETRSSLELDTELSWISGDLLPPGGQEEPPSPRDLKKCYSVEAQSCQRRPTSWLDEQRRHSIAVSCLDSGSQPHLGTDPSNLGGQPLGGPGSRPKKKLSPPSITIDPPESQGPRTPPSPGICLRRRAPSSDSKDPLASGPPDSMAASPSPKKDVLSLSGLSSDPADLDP", "assay": "Inhibition of T type calcium channel Cav3.1 (unknown origin) expressed in HEK293T cells by patch clamp method relative to control", "type": "cell-based"}, "A549 [13]": {"system": "A549", "assay": "Induction of cell cycle arrest in human A549 cells assessed as accumulation at sub G1 phase at 5 uM after 24 hrs by flow cytometric analysis (reference value: 7.8%)", "type": "functional"}, "A549 [14]": {"system": "A549", "assay": "Induction of cell cycle arrest in human A549 cells assessed as accumulation at G1 phase at 5 uM after 24 hrs by flow cytometric analysis (reference value: 53.1%)", "type": "functional"}, "A549 [15]": {"system": "A549", "assay": "Induction of cell cycle arrest in human A549 cells assessed as accumulation at S phase at 5 uM after 24 hrs by flow cytometric analysis (reference value: 17.6%)", "type": "functional"}, "A549 [16]": {"system": "A549", "assay": "Induction of cell cycle arrest in human A549 cells assessed as accumulation at G2/M phase at 5 uM after 24 hrs by flow cytometric analysis (reference value: 21.6%)", "type": "functional"}, "A549 [17]": {"system": "A549", "assay": "Induction of cell cycle arrest in human A549 cells assessed as accumulation at sub G1 phase at 5 uM after 48 hrs by flow cytometric analysis (reference value: 1.9 to 4.9%)", "type": "functional"}, "A549 [18]": {"system": "A549", "assay": "Induction of cell cycle arrest in human A549 cells assessed as accumulation at G1 phase at 5 uM after 48 hrs by flow cytometric analysis (reference value: 57.8 to 65.5%)", "type": "functional"}, "A549 [19]": {"system": "A549", "assay": "Induction of cell cycle arrest in human A549 cells assessed as accumulation at S phase at 5 uM after 48 hrs by flow cytometric analysis (reference value: 10.4 to 12%)", "type": "functional"}, "A549 [20]": {"system": "A549", "assay": "Induction of cell cycle arrest in human A549 cells assessed as accumulation at G2/M phase at 5 uM after 48 hrs by flow cytometric analysis (reference value: 22.1 to 25.4 %)", "type": "functional"}, "[21]": {"assay": "Protein binding in human plasma at 10 uM after 4 hrs", "type": "ADME, cell-free", "settings": "read-out: PPB (converted)"}, "[22]": {"assay": "Protein binding in rat plasma at 10 uM after 4 hrs", "type": "ADME, cell-free", "settings": "read-out: PPB (converted)"}},
  "data": [
    {"smiles": "COCC(=O)O[C@]1(CCN(C)CCCc2nc3ccccc3[nH]2)CCc2cc(F)ccc2[C@@H]1C(C)C", "note": "[MIBEFRADIL]", "values": [
      {"measurement": "IC50", "setting": "A549 [1]", "result": 31.4, "unit": "µM"},
      {"measurement": "Activity", "setting": "A549 [2]", "result": 9.6, "unit": "%"},
      {"measurement": "Activity", "setting": "A549 [3]", "result": 66.1, "unit": "%"},
      {"measurement": "Activity", "setting": "A549 [4]", "result": 10.9, "unit": "%"},
      {"measurement": "Activity", "setting": "A549 [5]", "result": 13.4, "unit": "%"},
      {"measurement": "Activity", "setting": "A549 [6]", "result": 10, "unit": "%"},
      {"measurement": "Activity", "setting": "A549 [7]", "result": 66.8, "unit": "%"},
      {"measurement": "Activity", "setting": "A549 [8]", "result": 12, "unit": "%"},
      {"measurement": "Activity", "setting": "A549 [9]", "result": 11.2, "unit": "%"}
    ]},
    {"smiles": "CCN(CC)CCOC(=O)c1ccc(N)cc1", "note": "[PROCAINE]", "values": [
      {"measurement": "remaining at 2 h, 10 µM", "setting": "[10]", "result": "< 5", "unit": "%"},
      {"measurement": "remaining at 2 h, 10 µM", "setting": "[11]", "result": "> 50", "unit": "%"}
    ]},
    {"smiles": "CN(C)CCCCCN(C)C1=Nc2ccccc2C(CC(=O)NCc2ccccc2)N1c1ccc(-c2ccccc2)cc1.Cl.Cl", "note": "(stereo not drawn)", "values": [
      {"measurement": "IC50", "setting": "A549 [1]", "result": 4.7, "unit": "µM"},
      {"measurement": "IC50", "setting": "[12]", "result": 0.51, "unit": "µM"},
      {"measurement": "Activity", "setting": "A549 [13]", "result": 55.3, "unit": "%"},
      {"measurement": "Activity", "setting": "A549 [14]", "result": 33.6, "unit": "%"},
      {"measurement": "Activity", "setting": "A549 [15]", "result": 8.8, "unit": "%"},
      {"measurement": "Activity", "setting": "A549 [16]", "result": 2.2, "unit": "%"},
      {"measurement": "Activity", "setting": "A549 [17]", "result": 98.1, "unit": "%"},
      {"measurement": "Activity", "setting": "A549 [18]", "result": 1.2, "unit": "%"},
      {"measurement": "Activity", "setting": "A549 [19]", "result": 0.6, "unit": "%"},
      {"measurement": "Activity", "setting": "A549 [20]", "result": 0.1, "unit": "%"}
    ]},
    {"smiles": "CC(=O)CC(c1ccccc1)c1c(O)c2ccccc2oc1=O", "note": "(stereo not drawn) [WARFARIN]", "values": [
      {"measurement": "fraction unbound at 4 h, 10 µM", "setting": "[21]", "result": 0.022},
      {"measurement": "fraction unbound at 4 h, 10 µM", "setting": "[22]", "result": 0.017}
    ]}
  ]
}
